pIC50: −log10 of the molar value. Structures can show the parent of a compound that is named as a salt.
Target: T1, ATM (Homo sapiens, UniProt Q13315)
T1 construct: detecting phosphorylation of Chk2 in a human non-small cell lung cancer cell line NCI-H460 (ATCC company); host or cells: NCI-H460 human non-small cell lung cancer cells
Test: ATM inhibition test (phosphorylation of Chk2 generated by ionizing radiation, AlphaScreen SureFire)
Format: cell-based
Conditions: phosphorylated Chk2 in NCI-H460 cells, ionizing radiation 8Gy, 1 hour after test compound treatment; read-out: ATM inhibitory activity
Outline: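 NCI-H460 cells treated with compound for 1 hour, then irradiated with 8Gy and incubated 1 hour at 37° C. Phospho-Chk2 measured by AlphaScreen SureFire. Inhibition ratio calculated relative to untreated irradiated and non-irradiated wells.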

T1 sequence (Q13315 whole entry): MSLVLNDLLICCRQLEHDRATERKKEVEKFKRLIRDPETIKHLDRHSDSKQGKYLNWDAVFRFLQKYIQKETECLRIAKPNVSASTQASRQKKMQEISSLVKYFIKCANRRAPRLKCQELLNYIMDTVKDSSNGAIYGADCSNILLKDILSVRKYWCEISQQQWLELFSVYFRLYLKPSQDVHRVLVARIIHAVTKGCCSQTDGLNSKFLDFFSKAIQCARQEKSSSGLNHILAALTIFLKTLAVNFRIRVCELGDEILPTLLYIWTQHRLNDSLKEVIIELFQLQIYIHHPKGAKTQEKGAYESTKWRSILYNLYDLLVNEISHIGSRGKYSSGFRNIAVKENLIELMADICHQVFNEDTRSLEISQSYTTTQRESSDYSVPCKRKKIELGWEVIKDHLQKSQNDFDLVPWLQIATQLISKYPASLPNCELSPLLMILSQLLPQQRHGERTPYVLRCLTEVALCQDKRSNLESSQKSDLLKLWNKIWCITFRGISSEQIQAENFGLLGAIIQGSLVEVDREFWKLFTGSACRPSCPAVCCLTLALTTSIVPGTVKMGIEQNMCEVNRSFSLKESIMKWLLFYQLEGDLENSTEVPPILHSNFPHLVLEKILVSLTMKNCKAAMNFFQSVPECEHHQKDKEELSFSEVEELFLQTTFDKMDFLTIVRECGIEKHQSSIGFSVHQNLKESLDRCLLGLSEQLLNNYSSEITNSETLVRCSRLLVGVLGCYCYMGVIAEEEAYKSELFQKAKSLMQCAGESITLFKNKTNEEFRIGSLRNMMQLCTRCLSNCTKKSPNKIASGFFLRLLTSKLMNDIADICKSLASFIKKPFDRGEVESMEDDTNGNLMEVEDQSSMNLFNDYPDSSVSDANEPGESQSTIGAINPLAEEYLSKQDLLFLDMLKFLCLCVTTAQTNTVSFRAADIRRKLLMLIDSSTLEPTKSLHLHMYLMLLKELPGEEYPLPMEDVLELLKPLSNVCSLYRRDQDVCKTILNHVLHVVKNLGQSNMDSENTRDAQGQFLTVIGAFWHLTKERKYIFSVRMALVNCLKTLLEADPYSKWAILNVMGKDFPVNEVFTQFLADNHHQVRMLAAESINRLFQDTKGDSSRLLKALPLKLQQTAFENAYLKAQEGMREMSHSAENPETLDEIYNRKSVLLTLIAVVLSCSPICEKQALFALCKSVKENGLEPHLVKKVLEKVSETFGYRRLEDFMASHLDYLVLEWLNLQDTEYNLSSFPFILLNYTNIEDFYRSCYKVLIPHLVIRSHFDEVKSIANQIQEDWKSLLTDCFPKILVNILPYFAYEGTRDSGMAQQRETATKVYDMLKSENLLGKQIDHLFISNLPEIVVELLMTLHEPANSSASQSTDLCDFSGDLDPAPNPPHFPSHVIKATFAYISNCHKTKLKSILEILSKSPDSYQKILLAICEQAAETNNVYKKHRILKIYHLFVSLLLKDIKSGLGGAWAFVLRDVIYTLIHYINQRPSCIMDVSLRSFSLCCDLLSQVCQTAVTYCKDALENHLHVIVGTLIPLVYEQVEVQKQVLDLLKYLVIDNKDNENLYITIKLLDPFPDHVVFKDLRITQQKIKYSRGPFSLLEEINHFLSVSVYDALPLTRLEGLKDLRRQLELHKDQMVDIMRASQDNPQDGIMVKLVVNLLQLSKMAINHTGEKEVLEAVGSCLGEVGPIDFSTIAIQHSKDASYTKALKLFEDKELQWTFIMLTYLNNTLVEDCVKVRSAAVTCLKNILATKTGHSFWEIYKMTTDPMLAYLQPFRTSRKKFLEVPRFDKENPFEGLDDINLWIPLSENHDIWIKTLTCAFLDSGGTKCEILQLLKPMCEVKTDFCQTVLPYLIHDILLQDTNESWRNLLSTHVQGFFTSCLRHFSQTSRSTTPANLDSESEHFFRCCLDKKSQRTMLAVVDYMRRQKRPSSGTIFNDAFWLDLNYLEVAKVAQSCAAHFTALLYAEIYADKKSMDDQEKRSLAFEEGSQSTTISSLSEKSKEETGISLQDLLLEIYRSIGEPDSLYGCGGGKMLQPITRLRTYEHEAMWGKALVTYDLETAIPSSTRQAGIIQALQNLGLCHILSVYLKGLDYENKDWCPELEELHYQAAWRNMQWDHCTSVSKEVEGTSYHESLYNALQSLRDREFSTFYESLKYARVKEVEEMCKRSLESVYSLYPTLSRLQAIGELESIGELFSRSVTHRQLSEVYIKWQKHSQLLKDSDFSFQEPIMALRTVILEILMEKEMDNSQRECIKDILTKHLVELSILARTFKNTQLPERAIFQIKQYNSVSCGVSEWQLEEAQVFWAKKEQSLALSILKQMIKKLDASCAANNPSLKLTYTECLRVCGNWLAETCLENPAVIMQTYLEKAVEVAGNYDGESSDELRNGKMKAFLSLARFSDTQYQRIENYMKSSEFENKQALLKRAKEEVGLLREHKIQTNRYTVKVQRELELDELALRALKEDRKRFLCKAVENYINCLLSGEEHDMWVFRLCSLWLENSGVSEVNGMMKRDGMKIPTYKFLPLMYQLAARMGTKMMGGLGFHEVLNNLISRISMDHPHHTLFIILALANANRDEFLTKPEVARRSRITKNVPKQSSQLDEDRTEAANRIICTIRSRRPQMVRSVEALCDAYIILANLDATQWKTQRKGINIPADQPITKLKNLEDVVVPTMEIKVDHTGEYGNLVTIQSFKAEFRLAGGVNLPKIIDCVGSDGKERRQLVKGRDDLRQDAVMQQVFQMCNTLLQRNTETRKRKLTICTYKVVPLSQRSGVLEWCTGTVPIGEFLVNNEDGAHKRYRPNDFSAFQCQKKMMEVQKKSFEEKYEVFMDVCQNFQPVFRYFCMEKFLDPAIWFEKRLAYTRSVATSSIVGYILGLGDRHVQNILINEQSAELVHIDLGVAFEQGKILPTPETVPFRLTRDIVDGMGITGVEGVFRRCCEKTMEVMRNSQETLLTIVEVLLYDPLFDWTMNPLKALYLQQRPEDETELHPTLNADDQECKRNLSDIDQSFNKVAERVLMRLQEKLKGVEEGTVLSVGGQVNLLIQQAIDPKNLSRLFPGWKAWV

| SMILES | pIC50 |
| --- | --- |
| CCCC(Nc1ccc2c(c1)Sc1cccc(-c3cc(N4CCOCC4)cc(=O)[nH]3)c1S2)c1cncc(OC)c1 (stereo not drawn) [Example 1-12-26, 6-(7-((1-(5-Methoxypyridin-3-yl)butyl)amino)thianthren-1-yl)-4-morpholino pyridin-2 (1H)-one] | 6.30 to 7.00 |
| CC(Nc1ccc2c(c1)Cc1cccc(-c3cc(N4CCOCC4)cc(=O)[nH]3)c1O2)c1cccs1 (stereo not drawn) [Example 2-14-44, 4-Morpholino-6-(7-((1-(thiophen-2-yl)ethyl)amino)-9H-xanthen-4-yl) pyridin-2(1H)-one] | 6.30 to 7.00 |
| CN(C)CC(=O)Nc1ccc2c(c1)Sc1cccc(-c3cc(N4CCOCC4)cc(=O)[nH]3)c1S2 [Example 1-7-1, 2-(dimethylamino)-N-(6-(4-morpholino-6-oxo-1,6-dihydropyridin-2-yl)thianthren-2-yl)acetamide] | 5.70 to 6.30 |
| Cc1ccnc(C(CO)Nc2ccc3c(c2)Cc2cccc(-c4cc(N5CCOCC5)cc(=O)[nH]4)c2O3)n1 (stereo not drawn) [Example 2-14-82, 6-(7-((2-Hydroxy-1-(4-methylpyrimidin-2-yl)ethyl)amino)-9H-xanthen-4-yl)-4-morpholino pyridin-2(1H)-one] | 5.70 to 6.30 |
| CCNc1cncc(CNc2ccc3c(c2)Cc2cccc(-c4cc(N5CCOCC5)cc(=O)[nH]4)c2O3)c1 [Example 2-6-1, 6-(7-(((5-(ethylamino)pyridin-3-yl)methyl)amino)-9H-xanthen-4-yl)-4-morpholinopyridin-2(1H)-one] | 6.30 to 7.00 |
| COC[C@H](CN(C(C)C)C(C)C)Nc1ccc2c(c1)Sc1cccc(-c3cc(N4CCOCC4)cc(=O)[nH]3)c1S2 [Example 1-46-14, (S)-6-(7-((1-(Diisopropylamino)-3-methoxypropan-2-yl)amino)thianthren-1-yl)-4-morpholino pyridin-2(1H)-one] | 6.30 to 7.00 |
| CNCC(Nc1ccc2c(c1)Sc1cccc(-c3cc(N4CCOCC4)cc(=O)[nH]3)c1S2)c1nccc(C)n1 (stereo not drawn) [Example 1-16-5, 6-(7-((2-(Methylamino)-1-(4-methylpyrimidin-2-yl)ethyl)amino)thianthren-1-yl)-4-morpholinopyridin-2(1H)-one] | 5.70 to 6.30 |
| Cc1ccsc1CNc1ccc2c(c1)Sc1cccc(-c3cc(N4CCOCC4)cc(=O)[nH]3)c1S2 [Example 1-12-59, 6-(7-(((3-Methylthiophen-2-yl)methyl)amino)thianthren-1-yl)-4-morpholino pyridin-2 (1H)-one] | 5.70 to 6.30 |
| O=c1cc(N2CCOCC2)cc(-c2cccc3c2Oc2ccc(NC4CCN(Cc5cncnc5)CC4)cc2C3)[nH]1 [Example 2-28-4, 4-Morpholino-6-(7-((1-(pyrimidin-5-ylmethyl)piperidin-4-yl)amino)-9H-xanthen-4-yl)pyridin-2 (1H)-one] | 6.30 to 7.00 |
| CN(C)c1ccc(CNc2ccc3c(c2)Cc2cccc(-c4cc(N5CCOCC5)cc(=O)[nH]4)c2O3)cn1 [Example 2-2-8, 6-(7-(((6-(Dimethylamino)pyridin-3-yl)methyl)amino)-9H-xanthen-4-yl)-4-morpholino pyridin-2(1H)-one] | 6.30 to 7.00 |
| Cc1ccc(C(Nc2ccc3c(c2)Sc2cccc(-c4cc(N5CCOCC5)cc(=O)[nH]4)c2S3)C2CCCC2)nc1 (stereo not drawn) [Example 1-12-125, 6-(7-((Cyclopentyl(5-methylpyridin-2-yl)methyl)amino)thianthren-1-yl)-4-morpholino pyridin-2(1H)-one] | 6.30 to 7.00 |
| O=c1cc(N2CCOCC2)cc(-c2cccc3c2Sc2ccc(NC4CCN(C5CCCC5)C4)cc2S3)[nH]1 (stereo not drawn) [Example 1-24-12, 6-(7-((1-Cyclopentylpyrrolidin-3-yl)amino)thianthren-1-yl)-4-morpholino pyridin-2(1H)-one] | 6.30 to 7.00 |
| CC1CC(Nc2ccc3c(c2)Cc2cccc(-c4cc(N5CCOCC5)cc(=O)[nH]4)c2O3)CCN1CCc1ccccc1 (stereo not drawn) [Example 2-19-1, 6-(7-((2-Methyl-1-phenethylpiperidin-4-yl)amino)-9H-xanthen-4-yl)-4-morpholinopyridin-2(1H)-one] | 6.30 to 7.00 |
| O=c1cc(N2CCOCC2)cc(-c2cccc3c2Oc2ccc(NC4CCN(CC5CCCCC5)CC4)cc2C3)[nH]1 [Example 2-28-35, 6-(7-((1-(Cyclohexylmethyl)piperidin-4-yl)amino)-9H-xanthen-4-yl)-4-morpholino pyridin-2(1H)-one] | 6.30 to 7.00 |
| Cc1ccc(C(CCCN(C)C)Nc2ccc3c(c2)Sc2cccc(-c4cc(N5CCOCC5)cc(=O)[nH]4)c2S3)nc1 (single isomer, unassigned) [Example 1-51-4, 6-(7-((4-(Dimethylamino)-1-(5-methylpyridin-2-yl)butyl)amino)thianthren-1-yl)-4-morpholino pyridin-2(1H)-one] | 6.30 to 7.00 |
| COc1cc(CNc2ccc3c(c2)Sc2cccc(-c4cc(N5CCOCC5)cc(=O)[nH]4)c2S3)cnc1OC [Example 1-12-7, 6-(7-(((5,6-Dimethoxypyridin-3-yl)methyl)amino)thianthren-1-yl)-4-morpholino pyridin-2(1H)-one] | 6.30 to 7.00 |
| CNCc1cccc(C(C)Nc2ccc3c(c2)Sc2cccc(-c4cc(N5CCOCC5)cc(=O)[nH]4)c2S3)n1 (stereo not drawn) [Example 1-20-8, 6-(7-((1-(6-((Methylamino)methyl)pyridin-2-yl)ethyl)amino)thianthren-1-yl)-4-morpholino pyridin-2(1H)-one] | 6.30 to 7.00 |
| CN1CCN(C(=O)CNc2ccc3c(c2)Sc2cccc(-c4cc(N5CCOCC5)cc(=O)[nH]4)c2S3)CC1 [Example 1-18-3] | 5.70 to 6.30 |
| CC(C(=O)Nc1ccc2c(c1)Sc1cccc(-c3cc(N4CCOCC4)cc(=O)[nH]3)c1S2)N1CCOCC1 (stereo not drawn) [Example 1-8, 2-Morpholino-N-(6-(4-morpholino-6-oxo-1,6-dihydropyridin-2-yl)thianthren-2-yl)propanamide] | 5.70 to 6.30 |
| CCCC(Nc1ccc2c(c1)Cc1cccc(-c3cc(N4CCOCC4)cc(=O)[nH]3)c1O2)c1cncc(OC)c1 (stereo not drawn) [Example 2-14-17, 6-(7-((1-(5-Methoxypyridin-3-yl)butyl)amino)-9H-xanthen-4-yl)-4-morpholino pyridin-2(1H)-one] | 6.30 to 7.00 |
| COc1ccccc1CCN1CCC(Nc2ccc3c(c2)Cc2cccc(-c4cc(N5CCOCC5)cc(=O)[nH]4)c2O3)CC1 [Example 2-30-10, 6-(7-((1-(2-Methoxyphenethyl)piperidin-4-yl)amino)-9H-xanthen-4-yl)-4-morpholino pyridin-2(1H)-one] | 5.70 to 6.30 |
| Cn1c(CNc2ccc3c(c2)Cc2cccc(-c4cc(N5CCOCC5)cc(=O)[nH]4)c2O3)cccc1=O [Example 2-2-47, 1-Methyl-6-(((5-(4-morpholino-6-oxo-1,6-dihydropyridin-2-yl)-9H-xanthen-2-yl)amino)methyl) pyridin-2(1H)-one] | 5.70 to 6.30 |

Further lines, results first:

| pIC50 | SMILES |
| --- | --- |
| 6.30 to 7.00 | N#Cc1ccnc(CNc2ccc3c(c2)Cc2ccnc(-c4cc(N5CCOCC5)cc(=O)[nH]4)c2O3)c1 [Example 2-41-16, 2-(((1-(4-Morpholino-6-oxo-1,6-dihydropyridin-2-yl)-5H-chromeno[2,3-c]pyridin-7-yl)amino)methyl)isonicotinonitrile] |
| 6.30 to 7.00 | COc1cncc(C(C)Nc2ccc3c(c2)Sc2cccc(-c4cc(N5CCOCC5)cc(=O)[nH]4)c2O3)c1 (stereo not drawn) [Example 4-4-1, 6-(8-((1-(5-Methoxypyridin-3-yl)ethyl)amino)phenoxathiin-4-yl)-4-morpholinopyridin-2(1H)-one] |
| > 7.00 | COCCN(C)CCC(Nc1ccc2c(c1)Sc1cccc(-c3cc(N4CCOCC4)cc(=O)[nH]3)c1S2)c1cnc(C)cn1 (single isomer, unassigned) [Example 10-3-4, 6-(7-((3-((2-Methoxyethyl) (methyl)amino)-1-(5-methylpyrazin-2-yl)propyl)amino)thianthren-1-yl)-4-morpholino pyridin-2(1H)-one] |
| 5.70 to 6.30 | O=c1cc(N2CCOCC2)cc(-c2cccc3c2Cc2ccc(NCc4ccc(Cl)nc4)cc2O3)[nH]1 [Example 6, 6-(6-(((6-chloropyridin-3-yl)methyl)amino)-9H-xanthen-1-yl)-4-morpholinopyridin-2(1H)-one] |
| 6.30 to 7.00 | N#Cc1cccc(CNc2cccc3c2Cc2cccc(-c4cc(N5CCOCC5)cc(=O)[nH]4)c2O3)c1 [Example 2-56-4, 3-(((5-(4-Morpholino-6-oxo-1,6-dihydropyridin-2-yl)-9H-xanthen-1-yl)amino)methyl)benzonitrile] |
| > 7.00 | Cc1ccc(C(CCN(C)CCO)Nc2ccc3c(c2)Sc2cccc(-c4cc(N5CCOCC5)cc(=O)[nH]4)c2S3)nc1 (single isomer, unassigned) [Example 10-4-1, 6-(7-((3-((2-Hydroxyethyl)(methyl)amino)-1-(5-methylpyridin-2-yl)propyl)amino)thianthren-1-yl)-4-morpholinopyridin-2(1H)-one] |
| 6.30 to 7.00 | Nc1ccc2c(c1)Cc1ccc(F)c(-c3cc(N4CCOCC4)cc(=O)[nH]3)c1O2 [Example 2-45, 6-(7-Amino-3-fluoro-9H-xanthen-4-yl)-4-morpholinopyridin-2(1H)-one] |
| 6.30 to 7.00 | COc1ccc(C2c3cc(N)ccc3Oc3c2ccnc3-c2cc(N3CCOCC3)cc(=O)[nH]2)cc1 (stereo not drawn) [Example 2-66, Hydrochloride of 6-(7-amino-5-(4-methoxyphenyl)-5H-chromeno[2,3-c]pyridin-1-yl)-4-morpholinopyridin-2(1H)-one] |
| 5.70 to 6.30 | CCN(CC)CCNc1ccc2c(c1)Cc1cccc(-c3cc(N4CCOCC4)cc(=O)[nH]3)c1S2 [Example 3-4-4, 6-(7-((2-(Diethylamino)ethyl)amino)-9H-thioxanthen-4-yl)-4-morpholino pyridin-2(1H)-one] |
| 5.70 to 6.30 | Nc1ccc2c(c1)Cc1c(F)ccc(-c3cc(N4CCOCC4)cc(=O)[nH]3)c1O2 [Example 2-43, 6-(7-Amino-1-fluoro-9H-xanthen-4-yl)-4-morpholinopyridin-2(1H)-one] |
| 5.70 to 6.30 | O=c1cc(N2CCOCC2)cc(-c2cccc3c2Oc2ccc(NC4CCCNC4)cc2S3)[nH]1 (stereo not drawn) [Example 4-5, 4-morpholino-6-(8-(piperidin-3-ylamino)phenoxathiin-4-yl)pyridin-2(1H)-one] |
